Assay results published in patent publication US10807982B2, “Bromodomain inhibitors” (CELGENE QUANTICEL RESEARCH, INC., priority 2015, dated 2020).

Tests used:
[1] = tested on: NCI-H460, human non-small cell lung cancer cells; assay: Cell-MTS cellular proliferation assay, NCI-H460; assay type: cell-based; conditions: Homo sapiens, 168 hr incubation
Method in brief: (§1)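 Cells seeded to reach ~90% confluence at 7 days (Raji 15,000, HL-60 5,000, NCI-H460 3,000 per well); 11-point compound dilution, 100 µM to 2.0 nM final, added 24 h after plating. Exposure 168 hr at 37 °C, 5% CO2; MTS read at OD490. IC50 from background-subtracted OD490 normalized to DMSO controls.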

[2] = tested on: Raji, human Burkitts lymphoma cells; assay: Cell-MTS cellular proliferation assay, Raji; assay type: cell-based; conditions: Homo sapiens, 168 hr incubation
Method in brief: as §1

BRD4(BD1) = BRD4(BD1) (Homo sapiens (Human), UniProt O60885); assay: In vitro enzyme inhibition assay (BRD4 AlphaScreen, H4-tetraacetyl peptide); assay type: binding; conditions: BRD4(BD1) 2 nM, peptide 15 nM
Method in brief: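 His-tagged BRD4(BD1), 2 nM, with 15 nM biotinylated H4K5/8/12/16(Ac) peptide in HEPES pH 7.3 buffer, 0.4% DMSO, 20 min RT with compound. Streptavidin donor and Ni-chelate acceptor beads (5 μg/mL) then equilibrated 2 h. AlphaScreen signal; IC50 by four-parameter fit.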

[3] = tested on: HL-60, human proleukemia cells; assay: Cell-MTS cellular proliferation assay, HL-60; assay type: cell-based; conditions: Homo sapiens, HL-60 cells, 168 hr incubation
Method in brief: as §1

| IC50 [1] [nM] | IC50 [2] [nM] | IC50 (BRD4(BD1)) [nM] | IC50 [3] [nM] | SMILES |
| --- | --- | --- | --- | --- |
| > 5000 | ≤ 500 | ≤ 500 | ≤ 500 | CCS(=O)(=O)Nc1cc(-c2cc(OC)c(=O)n(C)c2)c2oc(C3CCCC3)nc2c1 [Example 57, N-[2-cyclopentyl-7-(5-methoxy-1-methyl-6-oxopyridin-3-yl)-1,3-benzoxazol-5-yl]ethanesulfonamide] |
| > 5000 | ≤ 500 | ≤ 500 | ≤ 500 | Cc1cc(-c2cc3c(S(C)(=O)=O)nn(C)c3cc2OCC2CC2)cn(C)c1=O [Example 58, 5-[6-(cyclopropylmethoxy)-1-methyl-3-methylsulfonylindazol-5-yl]-1,3-dimethylpyridin-2-one] |
| > 5000 | ≤ 500 | ≤ 500 | ≤ 500 | COc1cc(-c2cc3c(S(C)(=O)=O)nn(C)c3cc2OCC2CC2)cn(C)c1=O [Example 59, 5-[6-(cyclopropylmethoxy)-1-methyl-3-methylsulfonylindazol-5-yl]-3-methoxy-1-methylpyridin-2-one] |
| > 5000 | ≤ 500 | ≤ 500 | ≤ 500 | Cc1cc(-c2cc3c(nc(C)n3Cc3ccc(F)cc3)c(NS(C)(=O)=O)n2)cn(C)c1=O [Example 60, N-[6-(1,5-dimethyl-6-oxopyridin-3-yl)-1-[(4-fluorophenyl)methyl]-2-methylimidazo[4,5-c]pyridin-4-yl]methanesulfonamide] |
| > 5000 | ≤ 500 | ≤ 500 | ≤ 500 | Cc1cc(-c2cc3c(nc(C)n3Cc3ccccc3)c(NS(C)(=O)=O)n2)cn(C)c1=O [Example 61, N-[1-benzyl-6-(1,5-dimethyl-6-oxopyridin-3-yl)-2-methylimidazo[4,5-c]pyridine-4-yl]methanesulfonamide] |
| > 5000 | ≤ 500 | ≤ 500 | ≤ 500 | Cc1cc(-c2cc3c(nc(C)n3Cc3ccc(F)cc3F)c(NS(C)(=O)=O)n2)cn(C)c1=O [Example 62, N-[1-[(2,4-difluorophenyl)methyl]-6-(1,5-dimethyl-6-oxopyridin-3-yl)-2-methylimidazo[4,5-c]pyridin-4-yl]methanesulfonamide] |
| > 5000 | ≤ 500 | ≤ 500 | ≤ 500 | Cc1cc(-c2cc(NS(C)(=O)=O)c3c(F)nn(Cc4ccc(F)cc4)c3c2)cn(C)c1=O [Example 64, N-[6-(1,5-dimethyl-6-oxopyridin-3-yl)-3-fluoro-1-[(4-fluorophenyl)methyl]indazol-4-yl]methanesulfonamide] |
| > 5000 | ≤ 500 | ≤ 500 | ≤ 500 | COc1cc(-c2cc(NS(C)(=O)=O)c3c(F)nn(Cc4ccc(F)cc4)c3c2)cn(C)c1=O [Example 65, N-[3-fluoro-1-[(4-fluorophenyl)methyl]-6-(5-methoxy-1-methyl-6-oxopyridin-3-yl)indazol-4-yl]methanesulfonamide] |
| > 5000 | ≤ 500 | ≤ 500 | ≤ 500 | Cc1cc(-c2cc(NS(C)(=O)=O)c3c(F)nn(CC4CC4)c3c2)cn(C)c1=O [Example 66, N-[1-(cyclopropylmethyl)-6-(1,5-dimethyl-6-oxopyridin-3-yl)-3-fluoroindazol-4-yl]methanesulfonamide] |
| > 5000 | ≤ 500 | ≤ 500 | ≤ 500 | Cc1cc(-c2cc(S(C)(=O)=O)c3nc(C)n(Cc4ccccc4)c3c2)cn(C)c1=O [Example 67, 5-(3-benzyl-2-methyl-7-methylsulfonylbenzimidazol-5-yl)-1,3-dimethylpyridin-2-one] |
| > 5000 | 500 to 5000 | ≤ 500 | 500 to 5000 | CCS(=O)(=O)c1cc(-c2cc(OC)c(=O)n(C)c2)cc2c1nc(C)n2Cc1ccccc1 [Example 68, 5-(3-benzyl-7-ethylsulfonyl-2-methylbenzimidazol-5-yl)-3-methoxy-1-methylpyridin-2-one] |
| > 5000 | > 5000 | ≤ 500 | 500 to 5000 | Cc1cc(-c2cc(S(C)(=O)=O)c3nc(C)n(CC4CC4)c3c2)cn(C)c1=O [Example 71, 5-[3-(cyclopropylmethyl)-2-methyl-7-methylsulfonylbenzimidazol-5-yl]-1,3-dimethylpyridin-2-one] |
| 500 to 5000 | ≤ 500 | ≤ 500 | ≤ 500 | CCOc1nc2c(NS(C)(=O)=O)cc(-c3cc(C)c(=O)n(C)c3)cc2n1CC1CC1 [Example 72, N-[1-(cyclopropylmethyl)-6-(1,5-dimethyl-6-oxopyridin-3-yl)-2-ethoxybenzimidazol-4-yl]methanesulfonamide] |
| 500 to 5000 | ≤ 500 | ≤ 500 | ≤ 500 | COc1nc2c(NS(C)(=O)=O)cc(-c3cc(C)c(=O)n(C)c3)cc2n1CC1CC1 [Example 73, N-[1-(cyclopropylmethyl)-6-(1,5-dimethyl-6-oxopyridin-3-yl)-2-methoxybenzimidazol-4-yl]methanesulfonamide] |
| ≤ 500 | ≤ 500 | ≤ 500 | ≤ 500 | Cn1cc(-c2cc(NS(C)(=O)=O)cc3cc(C4CC4)oc23)c2ccccc2c1=O [Example 79, N-[2-cyclopropyl-7-(2-methyl-1-oxoisoquinolin-4-yl)-1-benzofuran-5-yl]methanesulfonamide] |
| 500 to 5000 | ≤ 500 | ≤ 500 | ≤ 500 | Cc1cc(-c2cc(NS(C)(=O)=O)cc3cc(C4CC4)oc23)cn(C)c1=O [Example 80, N-[2-cyclopropyl-7-(1,5-dimethyl-6-oxopyridin-3-yl)-1-benzofuran-5-yl]methanesulfonamide] |
| ≤ 500 | ≤ 500 | ≤ 500 | ≤ 500 | CCS(=O)(=O)Nc1cc(-c2cn(C)c(=O)c3ccccc23)c2oc(C3CC3)cc2c1 [Example 82, N-[2-cyclopropyl-7-(2-methyl-1-oxoisoquinolin-4-yl)-1-benzofuran-5-yl]ethanesulfonamide] |
| 500 to 5000 | 500 to 5000 | ≤ 500 | 500 to 5000 | Cc1cc(-c2cc(NS(C)(=O)=O)cc3cc(-c4ccccc4)oc23)cn(C)c1=O [Example 83, N-[7-(1,5-dimethyl-6-oxopyridin-3-yl)-2-phenyl-1-benzofuran-5-yl]methane-sulfonamide] |
| ≤ 500 | ≤ 500 | ≤ 500 | ≤ 500 | Cn1cc(-c2cc(NS(C)(=O)=O)cc3cc(-c4ccccc4)oc23)c2ccccc2c1=O [Example 84, N-[7-(2-methyl-1-oxoisoquinolin-4-yl)-2-phenyl-1-benzofuran-5-yl]methanesulfonamide] |
| > 5000 | 500 to 5000 | ≤ 500 | ≤ 500 | Cc1cc(-c2cc(S(C)(=O)=O)ccc2OCC2CC2)c2n(c1=O)CCC2 [Example 85, 8-[2-(cyclopropylmethoxy)-5-methylsulfonylphenyl]-6-methyl-2,3-dihydro-1H-indolizin-5-one] |
| > 5000 | ≤ 500 | ≤ 500 | ≤ 500 | Cc1cc(-c2cc(NS(C)(=O)=O)ccc2Oc2ccc(F)cc2F)c2n(c1=O)CCC2 [Example 86, N-[4-(2,4-difluorophenoxy)-3-(6-methyl-5-oxo-2,3-dihydro-1H-indolizin-8-yl)phenyl]methanesulfonamide] |
| > 5000 | ≤ 500 | ≤ 500 | ≤ 500 | Cc1cc(-c2cc(S(C)(=O)=O)ccc2OCC2CC2)c2n(c1=O)CC(C)(C)C2 [Example 87, 8-[2-(cyclopropylmethoxy)-5-methylsulfonylphenyl]-2,2,6-trimethyl-1,3-dihydroindolizin-5-one] |
| > 5000 | ≤ 500 | ≤ 500 | ≤ 500 | Cc1cc(-c2cc(NS(C)(=O)=O)ccc2Oc2ccc(F)cc2F)c2n(c1=O)CC(C)(C)C2 [Example 88, N-[4-(2,4-difluorophenoxy)-3-(2,2,6-trimethyl-5-oxo-1,3-dihydroindolizin-8-yl)phenyl]methanesulfonamide] |
| > 5000 | ≤ 500 | ≤ 500 | ≤ 500 | COc1cc(-c2cc3c(S(C)(=O)=O)cccc3n2CCC2CC2)cn(C)c1=O [Example 91, 5-[1-(2-cyclopropylethyl)-4-methylsulfonylindol-2-yl]-3-methoxy-1-methylpyridin-2-one] |
| 500 to 5000 | ≤ 500 | ≤ 500 | ≤ 500 | Cc1cc(-c2cc(NS(C)(=O)=O)c3nc(C(F)(F)F)n(CC4CC4)c3c2)cn(C)c1=O [Example 92, N-[1-(cyclopropylmethyl)-6-(1,5-dimethyl-6-oxopyridin-3-yl)-2-(trifluoromethyl)benzimidazol-4-yl]methanesulfonamide] |
| > 5000 | ≤ 500 | ≤ 500 | ≤ 500 | COc1cc(-c2cc(NS(C)(=O)=O)c3nc(C(F)(F)F)n(CC4CC4)c3c2)cn(C)c1=O [Example 93, N-[1-(cyclopropylmethyl)-6-(5-methoxy-1-methyl-6-oxopyridin-3-yl)-2-(trifluoromethyl)benzimidazol-4-yl]methanesulfonamide] |
